# Experimental data from PubChem BioAssay (NCI).
#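 Each compound was tested at five concentrations against cells in 96-well plates for 48 hours. Definition used: TGI = concentration required for complete inhibition of growth.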
# What was measured:
# Experiment in all cases: NCI-60 cell line screen, 48 h
# 786-0 renal = tested on: 786-0 renal
# A498 renal = tested on: A498 renal
# A549 NSCLC = tested on: A549 NSCLC
# ACHN renal = tested on: ACHN renal
# CAKI-1 renal = tested on: CAKI-1 renal
# CCRF-CEM leukemia = tested on: CCRF-CEM leukemia
# COLO 205 colon = tested on: COLO 205 colon
# DLD-1 colon = tested on: DLD-1 colon
# DMS 114 small cell lung = tested on: DMS 114 small cell lung
# DMS 273 small cell lung = tested on: DMS 273 small cell lung
# EKVX NSCLC = tested on: EKVX NSCLC
# HCC-2998 colon = tested on: HCC-2998 colon
# HCT-116 colon = tested on: HCT-116 colon
# HCT-15 colon = tested on: HCT-15 colon
# HL-60(TB) leukemia = tested on: HL-60(TB) leukemia
# HOP-18 NSCLC = tested on: HOP-18 NSCLC
# HOP-62 NSCLC = tested on: HOP-62 NSCLC
# HOP-92 NSCLC = tested on: HOP-92 NSCLC
# HT29 colon = tested on: HT29 colon
# IGROV1 ovarian = tested on: IGROV1 ovarian
# K-562 leukemia = tested on: K-562 leukemia
# KM12 colon = tested on: KM12 colon
# KM20L2 colon = tested on: KM20L2 colon
# LOX IMVI melanoma = tested on: LOX IMVI melanoma
# LXFL 529 NSCLC = tested on: LXFL 529 NSCLC
# M14 melanoma = tested on: M14 melanoma
# M19-MEL melanoma = tested on: M19-MEL melanoma
# MALME-3M melanoma = tested on: MALME-3M melanoma
# MOLT-4 leukemia = tested on: MOLT-4 leukemia
# NCI-H23 lung = tested on: NCI-H23 lung
# NCI-H460 lung = tested on: NCI-H460 lung
# NCI-H522 lung = tested on: NCI-H522 lung
# OVCAR-3 ovarian = tested on: OVCAR-3 ovarian
# OVCAR-4 ovarian = tested on: OVCAR-4 ovarian
# OVCAR-5 ovarian = tested on: OVCAR-5 ovarian
# OVCAR-8 ovarian = tested on: OVCAR-8 ovarian
# SF-268 CNS = tested on: SF-268 CNS
# SF-295 CNS = tested on: SF-295 CNS
# SF-539 CNS = tested on: SF-539 CNS
# SK-MEL-2 melanoma = tested on: SK-MEL-2 melanoma
# SK-MEL-28 melanoma = tested on: SK-MEL-28 melanoma
# SK-MEL-5 melanoma = tested on: SK-MEL-5 melanoma
# SK-OV-3 ovarian = tested on: SK-OV-3 ovarian
# SN12C renal = tested on: SN12C renal
# SNB-19 CNS = tested on: SNB-19 CNS
# SNB-75 CNS = tested on: SNB-75 CNS
# SNB-78 CNS = tested on: SNB-78 CNS
# SR leukemia = tested on: SR leukemia
# SW-620 colon = tested on: SW-620 colon
# TK-10 renal = tested on: TK-10 renal
# U251 CNS = tested on: U251 CNS
# UACC-257 melanoma = tested on: UACC-257 melanoma
# UACC-62 melanoma = tested on: UACC-62 melanoma
# UO-31 renal = tested on: UO-31 renal
# XF 498 CNS = tested on: XF 498 CNS
# NCI-H226 lung = tested on: NCI-H226 lung
# RPMI-8226 leukemia = tested on: RPMI-8226 leukemia
# RXF 393 renal = tested on: RXF 393 renal
# RXF-631 renal = tested on: RXF-631 renal
smiles,measurement,setting,value
COc1ccc(/C=C/C(=O)C(C)C)cc1,TGI,786-0 renal,> 100 µM
same,TGI,A498 renal,> 100 µM
same,TGI,A549 NSCLC,> 100 µM
same,TGI,ACHN renal,> 100 µM
same,TGI,CAKI-1 renal,> 100 µM
same,TGI,CCRF-CEM leukemia,> 100 µM
same,TGI,COLO 205 colon,> 100 µM
same,TGI,DLD-1 colon,> 100 µM
same,TGI,DMS 114 small cell lung,43 µM
same,TGI,DMS 273 small cell lung,> 100 µM
same,TGI,EKVX NSCLC,> 100 µM
same,TGI,HCC-2998 colon,> 100 µM
same,TGI,HCT-116 colon,> 100 µM
same,TGI,HCT-15 colon,> 100 µM
same,TGI,HL-60(TB) leukemia,59.2 µM
same,TGI,HOP-18 NSCLC,> 100 µM
same,TGI,HOP-62 NSCLC,> 100 µM
same,TGI,HOP-92 NSCLC,> 100 µM
same,TGI,HT29 colon,79.6 µM
same,TGI,IGROV1 ovarian,> 100 µM
same,TGI,K-562 leukemia,> 100 µM
same,TGI,KM12 colon,98 µM
same,TGI,KM20L2 colon,64.3 µM
same,TGI,LOX IMVI melanoma,> 100 µM
same,TGI,LXFL 529 NSCLC,54.9 µM
same,TGI,M14 melanoma,> 100 µM
same,TGI,M19-MEL melanoma,> 100 µM
same,TGI,MALME-3M melanoma,> 100 µM
same,TGI,MOLT-4 leukemia,> 100 µM
same,TGI,NCI-H23 lung,> 100 µM
same,TGI,NCI-H460 lung,> 100 µM
same,TGI,NCI-H522 lung,41.7 µM
same,TGI,OVCAR-3 ovarian,61.4 µM
same,TGI,OVCAR-4 ovarian,> 100 µM
same,TGI,OVCAR-5 ovarian,> 100 µM
same,TGI,OVCAR-8 ovarian,> 100 µM
same,TGI,SF-268 CNS,> 100 µM
same,TGI,SF-295 CNS,> 100 µM
same,TGI,SF-539 CNS,> 100 µM
same,TGI,SK-MEL-2 melanoma,73.8 µM
same,TGI,SK-MEL-28 melanoma,> 100 µM
same,TGI,SK-MEL-5 melanoma,> 100 µM
same,TGI,SK-OV-3 ovarian,90.6 µM
same,TGI,SN12C renal,> 100 µM
same,TGI,SNB-19 CNS,> 100 µM
same,TGI,SNB-75 CNS,> 100 µM
same,TGI,SNB-78 CNS,46.7 µM
same,TGI,SR leukemia,> 100 µM
same,TGI,SW-620 colon,> 100 µM
same,TGI,TK-10 renal,> 100 µM
same,TGI,U251 CNS,> 100 µM
same,TGI,UACC-257 melanoma,> 100 µM
same,TGI,UACC-62 melanoma,> 100 µM
same,TGI,UO-31 renal,> 100 µM
same,TGI,XF 498 CNS,> 100 µM
O=C(c1ccccc1)N1C2C3CC(OCc4ccccc4)(OCc4ccccc4)C(O3)C21 (stereo unspecified),TGI,786-0 renal,> 100 µM
same,TGI,A498 renal,> 100 µM
same,TGI,A549 NSCLC,> 100 µM
same,TGI,ACHN renal,> 100 µM
same,TGI,CAKI-1 renal,> 100 µM
same,TGI,CCRF-CEM leukemia,> 100 µM
same,TGI,COLO 205 colon,> 100 µM
same,TGI,DLD-1 colon,> 100 µM
same,TGI,DMS 114 small cell lung,> 100 µM
same,TGI,EKVX NSCLC,> 100 µM
same,TGI,HCC-2998 colon,> 100 µM
same,TGI,HCT-116 colon,> 100 µM
same,TGI,HCT-15 colon,> 100 µM
same,TGI,HL-60(TB) leukemia,> 100 µM
same,TGI,HOP-62 NSCLC,> 100 µM
same,TGI,HOP-92 NSCLC,> 100 µM
same,TGI,IGROV1 ovarian,> 100 µM
same,TGI,K-562 leukemia,> 100 µM
same,TGI,KM20L2 colon,> 100 µM
same,TGI,LOX IMVI melanoma,> 100 µM
same,TGI,LXFL 529 NSCLC,> 100 µM
same,TGI,M14 melanoma,> 100 µM
same,TGI,M19-MEL melanoma,> 100 µM
same,TGI,MALME-3M melanoma,> 100 µM
same,TGI,MOLT-4 leukemia,> 100 µM
same,TGI,NCI-H226 lung,> 100 µM
same,TGI,NCI-H23 lung,> 100 µM
same,TGI,NCI-H460 lung,> 100 µM
same,TGI,NCI-H522 lung,> 100 µM
same,TGI,OVCAR-4 ovarian,> 100 µM
same,TGI,OVCAR-5 ovarian,> 100 µM
same,TGI,OVCAR-8 ovarian,> 100 µM
same,TGI,RPMI-8226 leukemia,> 100 µM
same,TGI,RXF 393 renal,> 100 µM
same,TGI,RXF-631 renal,> 100 µM
same,TGI,SF-268 CNS,> 100 µM
same,TGI,SF-539 CNS,> 100 µM
same,TGI,SK-MEL-2 melanoma,> 100 µM
same,TGI,SK-MEL-28 melanoma,> 100 µM
same,TGI,SK-MEL-5 melanoma,> 100 µM
same,TGI,SK-OV-3 ovarian,> 100 µM
same,TGI,SN12C renal,> 100 µM
same,TGI,SNB-19 CNS,> 100 µM
same,TGI,SNB-75 CNS,> 100 µM
same,TGI,SNB-78 CNS,> 100 µM
same,TGI,SW-620 colon,> 100 µM
same,TGI,TK-10 renal,> 100 µM
same,TGI,U251 CNS,> 100 µM
same,TGI,UACC-62 melanoma,> 100 µM
same,TGI,UO-31 renal,> 100 µM
same,TGI,XF 498 CNS,> 100 µM
